Data reported in patent US20160113940A1, “METHODS OF TREATING BIOFILMS” (BIOMIMETIX J.V., LLC, priority 2013, published 2016).

Assays:
[1] = tested on: Biofilm forming Staphylococcus Aureus
Description: A total of 20 C57B5 male mice were randomly divided into four treatment groups after surgery to create an infected femur fracture (midshaft femur fracture fixed with intramedullary 23 g needle and with 10^4 S. aureus added to the fracture site):
2. Antibiotic (Keflex) starting 24 hours post-surgery,
3. SOD mimetic MnTE-2-PyP (starting 24 hours post-surgery,
4. Antibiotic plus MnTE-2-PyP (starting 24 hours post-surgery).
The mice were followed for 2 weeks and received daily access to Keflex in drinking water at […] dose for the antibiotic treated groups and MnTE three time per week (loading dose day 1=5.0 mg/kg SQ, followed by 2.5 mg/kg SQ three times weekly). […] Mice were harvested after 2 weeks and femurs were homogenized in PBS, supernatants were serially diluted and plated to determine cell counts.

[2] = tested on: Biofilm forming S. aureus; test: Inhibition of Staphylococcus aureus biofilm formation in vitro (96 well plates, absorbance at 600 nm); assay type: cell-based; conditions: established 24 h biofilm, 24 hours further growth after treatment, vs PBS; p<0.0001; FIG. 1
Description: Biofilm forming S. aureus was grown in 96 well plates for 24 hours to allow a biofilm to form. Wells were allowed to grow an additional 24 hours after being treated with either PBS or SOD mimetic (Mn (III) tetrakis (N-ethylpyridinium-2-yl) porphyrin, or “MnTE-PyP”). Biofilm intensity was measured using absorbance at 600 nm. […] (p<0.0001)

SMILES	Fracture healing compared to no treatment ([1]; infected femur fracture, 2 wks, FIG. 3)	Biofilm intensity (absorbance at 600 nm) [2]	Mortality ([1]; initial post-operative period, mimetic only group, not felt to be related to the compound)
CC1=C(C(=O)O)N2C(=O)[C@@H](NC(=O)[C@H](N)c3ccccc3)[C@H]2SC1 [Keflex, reference compound]	significantly improved fracture healing	–	–
CC[n+]1ccccc1-c1c2nc(c(-c3cccc[n+]3CC)c3ccc([n-]3)c(-c3cccc[n+]3CC)c3nc(c(-c4cccc[n+]4CC)c4ccc1[n-]4)C=C3)C=C2.[Mn+3] [MnTE-2-PyP, Mn (III) tetrakis (N-ethylpyridinium-2-yl) porphyrin]	–	disrupts established S. aureus biofilms in culture	one mouse died
